According to PMC9794833, “Ligand recognition and activation of neuromedin U receptor 2” (Nature Communications, 2022):
pEC50: −log10 of the molar value. Where “and” joins values, the source holds several entries; their conditions need not be identical. Identical values can stand only once. Like-named read-outs stand apart in the source and are kept apart here. Where no end group is shown, it is not given here.

Assays:
Format in all cases: cell-based
[1] = biological target: T1, NMU2 engineered construct (Homo sapiens, UniProt Q9GZQ4); assay: TRUPATH assay, engineered NMU2 construct used for cryo-EM
T1 construct: HA signal peptide (N); Flag (N); PreScission protease site (C); twin-strep (C); expressed in transfected cells
T1 sequence (Q9GZQ4 1-355 limits assumed, change not shown): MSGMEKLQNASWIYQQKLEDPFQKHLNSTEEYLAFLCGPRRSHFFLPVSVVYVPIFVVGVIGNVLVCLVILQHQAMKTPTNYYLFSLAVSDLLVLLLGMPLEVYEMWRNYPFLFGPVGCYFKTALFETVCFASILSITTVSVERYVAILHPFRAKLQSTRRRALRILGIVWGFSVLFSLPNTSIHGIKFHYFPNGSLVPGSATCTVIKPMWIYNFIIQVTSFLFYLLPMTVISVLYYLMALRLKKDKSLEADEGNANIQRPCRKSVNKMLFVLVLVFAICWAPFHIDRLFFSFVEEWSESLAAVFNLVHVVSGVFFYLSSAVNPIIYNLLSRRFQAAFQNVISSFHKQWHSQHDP
Source text: To facilitate expression and purification of the NmU-25–NMU2–Gi1 complex, a hemagglutinin (HA) signal peptide followed by a flag tag was introduced at the N terminus of NMU2, while the flexible C-terminal residues of the receptor (Q356-T415) were replaced by a PreScission protease site followed by a twin-strep affinity tag (Supplementary Fig. 1a, b). […] Dominant-negative Gαi1 (DNGαi1) containing five mutations (S47C, G202T, G203A, E245A, and A326S) was used to improve the stability of the complex as these mutations lead to a preference for a nucleotide-free state, and prevent the dissociation of Gβγ from the heterotrimer[20],[21]. Over 8700 movies were collected, and the structure of the NmU-25–NMU2–Gi1 complex was determined by cryo-EM single-particle analysis at a global nominal resolution of 3.3 Å (Supplementary Fig. 2a–f, Supplementary Table 1). […]
The plasmids of Gαi1, Gβ3, and Gγ9 used for the TRUPATH assay were purchased from Addgene (TRUPATH Kit, #1000000163). […] The expression level of the receptor was measured by incubating 10 μl cells with 15 μl TBS buffer supplemented with 4% bovine serum albumin, 20% (v/v) viability staining solution7-AAD (Invitrogen, Cat#00-6993-50), and ANTI-FLAG M2-FITC antibody (Sigma, F4049; 1:100 diluted by TBS) at 4 °C for 20 min. […] Data were processed and analyzed following the method in the literature by using GraphPad Prism 8.0.

NMU2 H43E = biological target: T2, NMU2 H43E (Homo sapiens, UniProt Q9GZQ4, H43E); assay: TRUPATH assay, NMU2 mutant H43E; details: H43E
T2 construct: HA signal peptide (N); expressed in transfected cells; host or cells: HEK 293F
T2 sequence (Q9GZQ4 whole entry H43E): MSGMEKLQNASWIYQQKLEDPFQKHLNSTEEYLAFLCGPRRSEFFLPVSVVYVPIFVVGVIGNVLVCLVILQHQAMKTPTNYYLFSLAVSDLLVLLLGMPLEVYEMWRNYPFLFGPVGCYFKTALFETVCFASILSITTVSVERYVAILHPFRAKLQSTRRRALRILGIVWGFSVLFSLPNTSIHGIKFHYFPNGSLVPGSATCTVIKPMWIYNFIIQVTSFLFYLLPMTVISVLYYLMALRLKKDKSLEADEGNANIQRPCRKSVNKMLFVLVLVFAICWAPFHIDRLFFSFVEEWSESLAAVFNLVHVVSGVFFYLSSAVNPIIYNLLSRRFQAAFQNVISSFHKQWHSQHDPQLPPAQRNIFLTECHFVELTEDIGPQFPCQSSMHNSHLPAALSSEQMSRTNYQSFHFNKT
Protocol: (§1) The plasmids of Gαi1, Gβ3, and Gγ9 used for the TRUPATH assay were purchased from Addgene (TRUPATH Kit, #1000000163). NMU2 constructs of WT and mutants were constructed into a PTT5 vector (Invitrogen) with an N-terminal HA signal peptide followed by a Flag tag. HEK 293F cells were transiently transfected with WT or mutants of NMU2, Gαi1, Gβ3, and Gγ9 at an […] ratio of 4:1:1:1 with a total of 3500 ng plasmid DNA using a transfection reagent (PEI MAX 2000, Polysciences) and cultivated at 37 °C with 5 % CO2. Cells were collected after 48-h transfection. The expression level of the receptor was measured by incubating 10 μl cells with 15 μl TBS buffer supplemented with 4% bovine serum albumin, 20% (v/v) viability staining solution7-AAD (Invitrogen, Cat#00-6993-50), and ANTI-FLAG M2-FITC antibody (Sigma, F4049; 1:100 diluted by TBS) at 4 °C for 20 min. After incubation, 175 μl TBS buffer was added, and the fluorescence signal on the cell surface was detected by an FCM (flow cytometry) reader (Millipore). The cells were diluted with 1× HBSS (Hank’s balanced salt solution) balanced buffer supplemented with 25 mM HEPES, pH 7.4, and seeded onto the 96-well opaque cell culture plates (Beyotime) at a density of 18,000 cells per well by 60 μl. Freshly prepared 50 μM coelenterazine 400a (Nanolight Technologies) was added into the well by 10 μl. After a 5 min equilibration time in the darkness, plates were then read in a Synerg^TM H1 microplate reader (BioTek) with excitation at 395 nm and emission at 410 and 515 nm by serially three times. Then, 30 μl of 3.3× agonists were added into the wells with a gradient final concentration from 10^−4–10^−13 M. Plates were read immediately again by serially five times. Data were processed and analyzed following the method in the literature by using GraphPad Prism 8.0.

NMU2 N109A = biological target: T3, NMU2 N109A (Homo sapiens, UniProt Q9GZQ4, N109A); assay: TRUPATH assay, NMU2 mutant N109A
T3 construct: HA signal peptide (N); expressed in transfected cells; host or cells: HEK 293F
T3 sequence (Q9GZQ4 whole entry N109A): as the sequence (Q9GZQ4 whole entry H43E) above, with E43H, N109A counted along it
Protocol: as §1

NMU2 E127A [2] = biological target: T4, NMU2 E127A (Homo sapiens, UniProt Q9GZQ4, E127A); assay: TRUPATH assay, NMU2 mutant E127A
T4 construct: HA signal peptide (N); expressed in transfected cells; host or cells: HEK 293F
T4 sequence (Q9GZQ4 whole entry E127A): as the sequence (Q9GZQ4 whole entry H43E) above, with E43H, E127A counted along it
Protocol: as §1, with “The cells were diluted with 1× HBSS (Hank’s balanced salt solution) balanced buffer supplemented with 25 mM HEPES, pH 7.4, and seeded onto the 96-well opaque cell culture plates (Beyotime) at a density of 18,000 cells per well by 60 μl. Freshly prepared 50 μM coelenterazine 400a (Nanolight Technologies) was added into the well by 10 μl.” left out, “Data were processed and analyzed following the method in the literature by using GraphPad Prism 8.0.” left out

NMU2 F291A = biological target: T5, NMU2 F291A (Homo sapiens, UniProt Q9GZQ4, F291A); assay: TRUPATH assay, NMU2 mutant F291A
T5 construct: HA signal peptide (N); expressed in transfected cells; host or cells: HEK 293F
T5 sequence (Q9GZQ4 whole entry F291A): as the sequence (Q9GZQ4 whole entry H43E) above, with E43H, F291A counted along it
Protocol: as §1

NMU2 = biological target: T6, NMU2 (Homo sapiens, UniProt Q9GZQ4); assay: IP accumulation assay (IP-One Gq kit), WT NMU2; details: IP accumulation
T6 construct: HA signal peptide (N); expressed in transfected cells; host or cells: HEK 293F
T6 sequence (Q9GZQ4 whole entry): as the sequence (Q9GZQ4 whole entry H43E) above, with E43H counted along it
Protocol: (§2) NMU2 constructs of WT and mutants were constructed into PTT5 vector (Invitrogen), as mentioned above. HEK 293F cells were transiently transfected with WT or mutants with total of 2000 ng plasmid DNA using transfection reagent (PEI MAX 2000, Polysciences) and cultivated at 37 °C with 5% CO2. Cells were collected after 48-h transfection. IP accumulation was tested by IP-One Gq assay kit (Cisbio Bioassays, 62IPAPEJ) following the instruction manual. In general, cells were resuspended with 1× HBSS buffer containing 20 mM LiCl (stimulation buffer) and seeded into the white 384-well microplates (Proxi Plate^TM-384 Plus, PerkinElmer) with a density of 20,000 per well. Cells were preincubated with 10^−5 M R-PSOP (provided by Boehringer Ingelheim company, Germany) and gradient concentration from 10^−4 to 10^−11 M of NMU-25 or gradient concentration 10^−4 to 10^−11 M of NMU-25 alone in stimulation buffer at 37 °C for 90 min. The cryptate-labeled anti-IP1 monoclonal antibody and d2-labeled IP1 were diluted with lysis & detection buffer (1:20) and added to each well by 3 μl, respectively. The plates were incubated at room temperature for 60 minutes and then read in a Synerg^TM H1 microplate reader (BioTek) with excitation at 330 nm and emission at 620 and 665 nm. The IP1 production was calculated by a standard dose–response curve and analyzed by GraphPad Prism 8.0.

NMU2 E127A [3] = biological target: T4, NMU2 E127A; assay: IP accumulation assay, NMU2 mutant E127A; details: IP accumulation
Protocol: as §2

NMU2 H285A = biological target: T7, NMU2 H285A (Homo sapiens, UniProt Q9GZQ4, H285A); assay: IP accumulation assay, NMU2 mutant H285A; details: IP accumulation
T7 construct: HA signal peptide (N); expressed in transfected cells; host or cells: HEK 293F, transient transfection, PTT5 vector
T7 sequence (Q9GZQ4 whole entry H285A): as the sequence (Q9GZQ4 whole entry H43E) above, with E43H, H285A counted along it
Protocol: as §2

NMU2 R288A = biological target: T8, NMU2 R288A (Homo sapiens, UniProt Q9GZQ4, R288A); assay: IP accumulation assay, NMU2 mutant R288A
T8 construct: HA signal peptide (N); expressed in transfected cells; host or cells: HEK 293F
T8 sequence (Q9GZQ4 whole entry R288A): as the sequence (Q9GZQ4 whole entry H43E) above, with E43H, R288A counted along it
Protocol: as §2

[4] = read-out: pEC50 mean±SEM (converted)
[5] = read-out: pEC50±SEM, NmU-25 alone (converted)

FRVDEEFQSPFASQSRGYFLFRPRN-NH2 [NmU-25]
G protein activation (TRUPATH), dose-response point ([1]; Log [agonist] M -5): 104.095 and 133.885 and 136.246 | G protein activation (TRUPATH), dose-response point ([1]; Log [agonist] M -6): 76.3981 and 114.895 and 125.038 | EC50 ratio EC50(mutant)/EC50(WT) (NMU2 H43E): 11 | Span (window between Emax and minimal agonist response) (NMU2 H43E): 135±8 % of WT | G protein activation (TRUPATH), dose-response point (NMU2 H43E; Log [agonist] M -4): 115.78 and 106.024 and 146.553 and 103.896 | G protein activation (TRUPATH), dose-response point (NMU2 H43E; Log [agonist] M -6): 81.3432 and 53.8154 and 89.1078 and 81.5652 | ΔpEC50 (from WT) (NMU2 H43E; individual experiments): -0.8963 and -0.6313 and -0.3476 and -0.5879 | pEC50 (NMU2 H43E; read-out: EC50): 6.44 | EC50 (NMU2 H43E; [4]): 363 nM | EC50 ratio EC50(mutant)/EC50(WT) (NMU2 N109A): 9 | Span (window between Emax and minimal agonist response) (NMU2 N109A): 138±11 % of WT | G protein activation (TRUPATH), dose-response point (NMU2 N109A; Log [agonist] M -4): 126.259 | G protein activation (TRUPATH), dose-response point (NMU2 N109A; Log [agonist] M -5): 106.487 and 123.773 and 113.723 | G protein activation (TRUPATH), dose-response point (NMU2 N109A; Log [agonist] M -6): 98.1363 and 71.1117 and 54.8765 | ΔpEC50 (from WT) (NMU2 N109A; individual experiments): -1.459 and -0.6318 and -0.9885 | pEC50 (NMU2 N109A; read-out: EC50): 6.53 | EC50 (NMU2 N109A; [4]): 295 nM | G protein activation (TRUPATH), dose-response point (NMU2 E127A [2]; Log [agonist] M -4): 45.81 and 24.8732 | potency (in words) (NMU2 E127A [2]; TRUPATH): complete loss of potency | EC50 ratio EC50(mutant)/EC50(WT) (NMU2 F291A): 22 | Span (window between Emax and minimal agonist response) (NMU2 F291A): 126±11 % of WT | G protein activation (TRUPATH), dose-response point (NMU2 F291A; Log [agonist] M -4): 101.173 and 139.066 | G protein activation (TRUPATH), dose-response point (NMU2 F291A; Log [agonist] M -5): 80.701 and 107.283 and 106.417 | span (NMU2 F291A; compared with wild-type, peer review file): 127% | ΔpEC50 (from WT) (NMU2 F291A; individual experiments): -0.7238 and -1.311 and -0.9879 | pEC50 (NMU2 F291A; read-out: EC50): 6.13 | EC50 (NMU2 F291A; [4]): 741 nM | pEC50 (NMU2; read-out: EC50, NmU-25 alone): 7.77 | EC50 (NMU2; [5]): 16.6 nM | pEC50 (NMU2 E127A [3]; read-out: EC50, NmU-25 alone): 5.67 | EC50 (NMU2 E127A [3]; [5]): 2140 nM | pEC50 (NMU2 H285A; read-out: EC50, NmU-25 alone): 6.67 | EC50 (NMU2 H285A; [5]): 214 nM | NmU-25-induced IP accumulation (in words) (NMU2 R288A): totally eliminated
